Here are results for eight compounds from patent US20230128137A1, “BENZO FIVE-MEMBERED CYCLIC COMPOUND” (MEDSHINE DISCOVERY INC., priority 2020, published 2023).

One series relates to RS4;11 cells. In words: CTG (CellTiter-Glo) test of inhibition of RS4;11 cell proliferation. It counts as cell-based. The note with it: Homo sapiens, 72 hours incubation. As for the experimental part: 2.1 Experimental objectives: To obtain the IC50 value of the test compound in RS4;11 cell lines;
2.2 incubation time: 72 hours;
2.3 experimental method: CTG (Cell Titer-Glo™ Luminescent Cell Viability Assay);
a. when the cells were fused to 80%, the cells were collected and counted;
b. RS4; 11 cell suspension was diluted to 5000 cells/well and 20 uls of cell suspension was seeded in each well of 384-well plate;
c. the cell plates were placed back to 37° C. and incubated in a 5% carbon dioxide incubator for 24 hours;
d. the test compound was prepared into DMSO solution, and 5 μL of each was added to the designated well of the test plate, and the final concentration of DMSO solution was 0.5%;
e. initiation cell viability was detected by CTG;
f. the test plate was put back into the incubator and incubated for another 72 hours;
g. after 72 hours incubation, CellTiter-Glo™ luminescent cell viability assay was completed according to the manufacturer's manual;
(In general: Cellular ATP, detected with luciferase, serves as a proxy for viable cell number.)

A further series has as its target T1, Bcl-xL (Homo sapiens, UniProt Q07817).
T1 construct: Human recombinant Bcl-xL (amino acid 1-209); purchased Reaction Biology Corporation (RBC) APT-11-442; host or cells: E. coli
In words: HTRF competition test, Bcl-xL with FAM-Bad peptide (enzymology experiment). The series is classed as binding. The note with it: 3 nM Bcl-xL and 40 nM FAM-Bad, read-out: IC50 (nM) for inhibition of Bcl-xL enzyme. As for the experimental part: (§1) This experiment was based on the competition between fluorescently-labeled Bak/Bad/Noxa peptides and GST-labeled Bcl family proteins. The fluorescence detection method based on HTRF was to observe the binding degree by using the fluorescence ratio between Tb-labeled anti-GST and FAM-labeled peptides. This peptide binds to the surface of the Bcl family protein pocket, which is essential for its anti-apoptotic function.
(§2) 1.1 Experimental reagents: analysis buffer: 20 mM potassium phosphate, pH 7.5, 50 mM sodium chloride, 1 mM EDTA, 0.005% Tritonx-100 and 1% DMSO.
(§3) 1.2 Probe: 5,6-FAM-peptide
(§4) 1.4 Experimental Conditions:
3 nM Bcl-xL and 40 nM FAM-Bad
(§5) a) The Bcl enzyme reaction solution was prepared in the newly prepared analysis buffer;
(§6) b) the Bcl enzyme reaction solution was provided;
(§7) c) the compound was first prepared into a 100% dimethyl sulfoxide solution, and then the compound solution was mixed with the Bcl enzyme reaction solution using (Echo550; nanoliter range) technology, and co-incubated for 10 minutes;
(§8) d) the FAM peptide solution was added.
(§9) e) the mixed solution was gently stirred in dark and room temperature, and co-cultured for 10 minutes.
(§10) f) Anti-GST solution was added.
(§11) g) The mixed solution was gently stirred in dark and room temperature, and co-cultured for 1 hour.
(§12) h) The HTRF high-frequency fluorescence ratio was tested, and the IC50 values were calculated.
For orientation: In TR-FRET formats the signal depends on donor and acceptor labels being close together.

A further series has as its target T2, Bcl-2 (Homo sapiens, UniProt P10415).
T2 construct: Human recombinant Bcl-2 (amino acid 1-207); purchased Reaction Biology Corporation (RBC) APT-11-441; host or cells: E. coli
In words: HTRF competition test, Bcl-2 with FAM-BAK peptide (enzymology experiment). It counts as binding. The note with it: 4 nM Bcl-2 and 100 nM FAM-BAK, read-out: IC50 (nM) for inhibition of Bcl-2 enzyme. As for the experimental part:
as §1, §2, §3, §4
4 nM Bcl-2 and 100 nM FAM-BAK
as §5, §6, §7, §8, §9, §10, §11, §12

Series [1] in a line: Liver microsome metabolic stability in vitro, beagle dog. Particulars: beagle dog liver microsomes; for Remaining (T = 60 min): 60 min incubation. It counts as in vitro ADME. Here is the method: (§13) 3.2 preparation of nicotinamide adenine dinucleotide phosphate cofactor solution: an appropriate amount of NADPH powder was weighed and diluted into 10 mM magnesium chloride solution (working solution concentration: 10 unit/mL; final concentration of reaction system: 1 unit/mL);
(§14) 3.3 preparation of liver microsomes: an appropriate concentration working solution of liver microsomes (human, SD rat, CD-1 mouse, beagle dog) was prepared in 100 mM potassium phosphate buffer;
(§15) 3.4 preparation of quenching solution: cold (4° C.) acetonitrile containing 200 ng/mL tolbutamide and 200 ng/mL labetalol as internal standard (IS) was used as quenching solution;
(§16) 3.5 experimental operation:
(§17) a. empty “incubation” plates T60 and NCF60 were preheated for 10 minutes;
(§18) b. the liver microsomes were diluted to 0.56 mg/mL with 100 mM phosphate buffer;
(§19) c. 445 μL of microsomal working solution (0.56 mg/mL) was transferred to the preheated “incubation” plates T60 and NCF60, and then the“incubation” plates T60 and NCF60 were preincubated for 10 min with continuous shaking at 37° C. 54 μL of liver microsomes were transferred to a blank plate, and 6 μL of NAPDH cofactor was added to the blank plate, and then 180 μL of quenching solution was added thereto;
(§20) e. for NCF60 plate, 50 μL of buffer was added thereto and the mixture was fully mixed for three times. Timing was started; the plate was shaken at 37° C. for 60 minutes;
(§21) f. in “quenching” plate TO, 180 μL of quenching solution and 6 μL of NAPDH cofactor were addded to make sure that the plate was cooled down to prevent evaporation;
(§22) g. for T60 plates, the mixture was fully mixed for three times, and 54 μL of mixture was immediately transferred to the “quenching” plate at the 0 min time point. 44 μL of NAPDH cofactor was then added to the culture plate (T60). Timing was started; the plate was shaken at 37° C. for 60 minutes;
(§23) h. at 5, 10, 20, 30 and 60 min, 180 μL of quenching solution was added to the “quenching” plate, and the mixture was mixed for one time, and 60 μL of sample was continuously transferred from the T60 plate to the “quenching” plate at each time point;
(§24) i. for NCF60: the mixture was mixed for one time, and 60 μL of sample was transferred from the NCF60 culture dish to the “quenching” plate containing quenching solution at 60 minutes time point;
(§25) j. all sampling plates were shaked for 10 minutes, then centrifuged at 4000 rpm for 20 minutes at 4° C.;
(§26) k. 60 μL of supernatant was transferred into 180 μL of HPLC water and stirred with a plate shaker for 10 min;
(§27) 1. before LC-MS/MS analysis, each bioanalysis plate was sealed and shaked for 10 minutes.
Background: Microsomes from liver hold many membrane-bound enzymes, among them those of drug oxidation.

The nature of series [2]: Liver microsome metabolic stability in vitro, human. The series is classed as in vitro ADME. The note with it: human liver microsomes; for Remaining (T = 60 min): 60 min incubation. Here is the method:
as §13, §14, §15, §16, §17, §18, §19, §20, §21, §22, §23, §24, §25, §26, §27

The nature of series [3]: Liver microsome metabolic stability in vitro, SD rat. The note with it: SD rat liver microsomes; for Remaining (T = 60 min): 60 min incubation. It counts as in vitro ADME. Here is the method: as §13, §14, §15, §16, §17, §18, §19, §20, §21, §22, §23, §24, §25, §26, §27
The nature of series [4]: Liver microsome metabolic stability in vitro, CD-1 mouse. The series is classed as in vitro ADME. Particulars: CD-1 mouse liver microsomes; for Remaining (T = 60 min): 60 min incubation. Here is the method: as §13, §14, §15, §16, §17, §18, §19, §20, §21, §22, §23, §24, §25, §26, §27

T2 sequence (P10415 1-207): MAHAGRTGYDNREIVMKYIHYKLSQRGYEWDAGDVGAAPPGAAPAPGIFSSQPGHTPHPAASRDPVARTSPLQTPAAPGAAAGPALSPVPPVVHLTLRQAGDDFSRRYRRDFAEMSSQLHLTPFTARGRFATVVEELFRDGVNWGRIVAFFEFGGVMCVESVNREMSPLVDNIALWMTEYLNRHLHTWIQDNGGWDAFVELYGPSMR
T1 sequence (Q07817 1-209): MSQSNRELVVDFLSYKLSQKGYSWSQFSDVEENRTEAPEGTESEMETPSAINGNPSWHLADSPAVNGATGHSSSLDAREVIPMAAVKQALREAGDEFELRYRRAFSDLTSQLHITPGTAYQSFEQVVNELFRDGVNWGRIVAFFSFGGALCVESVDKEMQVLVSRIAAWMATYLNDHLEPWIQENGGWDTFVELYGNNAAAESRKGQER

As a reminder, the IC50 is the point on the concentration scale where inhibition reaches its midpoint. In turn, `CC1(C)CCC(CN2CCN(c3ccc(C(=O)NS(=O)(=O)c4cc([N+](=O)[O-])c(NCC5CCOCC5)c5[nH]ccc45)c(Oc4cnc5[nH]ccc5c4)c3)CC2)=C(c2ccc(Cl)cc2)C1` [Compound 1] came in with a concentration for half-maximal inhibition (IC50) with RS4;11 cells of 1.4 nM.
On to `CC1(C)CCC(CN2CC=C(c3ccc(C(=O)NS(=O)(=O)c4cc([N+](=O)[O-])c(NCC5CCOCC5)c5[nH]cnc45)c(Oc4ccc5[nH]ccc5c4)c3)CC2)=C(c2ccc(Cl)cc2)C1` [Compound 5], for which the concentration for half-maximal inhibition (IC50) was found to be 504 nM at Bcl-xL, 2.6 nM at Bcl-2 and 10.2 nM with RS4;11 cells.
For `CC1(C)CCC(CN2CCN(c3ccc(C(=O)NS(=O)(=O)c4cc([N+](=O)[O-])c(NCC5COCCO5)c5[nH]cnc45)c(Oc4cnc5[nH]ccc5c4)c3)CC2)=C(c2ccc(Cl)cc2)C1` (centres unmarked) [Compound 7], the midpoint of inhibition with RS4;11 cells, the IC50, lay at 6.8 nM.
Usually CLint scaled stands for the capacity of the preparation to metabolise the compound, expressed as a volume cleared per time. A low value points to slow turnover. Broadly, the half-life is the time needed for the level to fall by half in the phase considered. Read a low half-life as fast loss. On to `O=C(O)Cc1ccccc1Nc1c(Cl)cccc1Cl` [Diclofenac], for which the CLint scaled at 1 µM in series [1] was under 13.8 mL/min/kg; in series [3] it was 174 mL/min/kg. For the same compound, the half-life at 1 µM was over 145 min in series [1] and 63.5 min in series [4]. The “Remaining (T = 60 min)” value turned out to be 101% in series [1], 0.0% in series [2], 5.2% in series [3] and 53.0% in series [4]. The T1/2 in series [3] was 14.4 min.
For the compound `Cn1cnc2c(S(=O)(=O)NC(=O)c3ccc(N4CCN(CC5=C(c6ccc(Cl)cc6)CC(C)(C)CC5)CC4)cc3Oc3cnc4[nH]ccc4c3)cc([N+](=O)[O-])c(NCC3CCOCC3)c21` [Compound 8], the IC50 came out at 1110 nM at Bcl-xL, 1.3 nM on Bcl-2 and 6.5 nM in the series with RS4;11 cells.
On the same counts, the results for `Cn1cnc2c(NCC3CCOCC3)c([N+](=O)[O-])cc(S(=O)(=O)NC(=O)c3ccc(N4CCN(CC5=C(c6ccc(Cl)cc6)CC(C)(C)CC5)CC4)cc3Oc3cnc4[nH]ccc4c3)c21` [Compound 6] are 173 nM, 2.4 nM and 4.6 nM.
Take `C[C@]12CC[C@H]3[C@@H](CCC4=CC(=O)CC[C@@]43C)[C@@H]1CC[C@@H]2O` [Testosterone]: the CLint scaled at 1 µM in series [1] came to 81 mL/min/kg; in series [2] (human), 155 mL/min/kg; in series [3], 2180 mL/min/kg; in series [4], 1370 mL/min/kg. Besides, the T1/2 in series [1] turned out to be 24.6 min; in series [3], 1.1 min; in series [4] it was 4.0 min. Besides, the “Remaining (T = 60 min)” value in series [1] is reported as 19%; in series [2] it was 5.7%; in series [3], 0.0%; in series [4], 0.0%. Also, the half-life at 1 µM in series [2] (human) turned out to be 8.9 min.
As for `Cc1nc2c(S(=O)(=O)NC(=O)c3ccc(N4CCN(CC5=C(c6ccc(Cl)cc6)CC(C)(C)CC5)CC4)cc3Oc3cnc4[nH]ccc4c3)cc([N+](=O)[O-])c(NCC3CCOCC3)c2[nH]1` [Compound 9], the 50% inhibitory concentration (IC50) at Bcl-xL was 326 nM; at Bcl-2 it was 3.6 nM; with RS4;11 cells, 1.9 nM.
